Biological target: T1, AsPC-1 HiBiT-KRASG12D (Homo sapiens, UniProt P01116, G12D)
T1 construct: insert the HiBiT tag onto the N-terminus of one or more of the endogenous KRAS alleles; endogenous in cells; host or cells: AsPC-1 (ATCC CRL-1682), CRISPR-Cas9 knock-in clone, one tagged allele
Assay: HiBiT degradation assay (G12D), AsPC-1 HiBiT-KRASG12D cells
Type: cell-based
Conditions: 24 hours treatment; for Dmax: ASPC1, AsPC-1 HiBiT-KRASG12D cells, maximum degradation observed; for DC50: AsPC-1 HiBiT-KRASG12D cells, HiBiT luminescence
Outline: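 AsPC-1 cells (homozygous G12D) carrying a CRISPR knock-in N-terminal HiBiT tag on endogenous KRAS were treated with compounds for 24 hours at 37° C, 5% CO2, in triplicate. Alamar blue viability was read first, then cells were washed and lysed with Nano-Glo HiBiT reagent for 45 minutes before luminescence reading.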

T1 sequence (P01116 1-188 isoform P01116-2 G12D): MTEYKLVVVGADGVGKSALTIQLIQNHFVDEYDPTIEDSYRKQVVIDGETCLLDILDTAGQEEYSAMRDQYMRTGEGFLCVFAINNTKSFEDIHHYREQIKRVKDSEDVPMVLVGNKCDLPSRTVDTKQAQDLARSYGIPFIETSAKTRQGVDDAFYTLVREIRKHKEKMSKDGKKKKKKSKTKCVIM

| Structure (SMILES) | Dmax [%] | DC50 [nM] |
| --- | --- | --- |
| CCc1cccc2cc(O)cc(-c3ncc4c(N5CC6CCC(C5)N6)nc(OC[C@@]56CCCN5[C@H](COC(=O)N(C)Cc5cc([C@H](C(=O)N7C[C@H](O)C[C@H]7C(=O)N[C@@H](C)c7ccc(-c8scnc8C)cc7)C(C)C)on5)CC6)nc4c3F)c12 [Compound 90, [(3S,7aS)-7a-{[(4-{3,8-diazabicyclo[3.2.1]octan-3-yl}-7-(8-ethyl-3-hydroxynaphthalen-1-yl)-8-fluoropyrido[4,3-d]pyrimidin-2-yl)oxy]methyl}-hexahydro-1H-pyrrolizin-3-yl]methyl N-({5-[(2R)-1-[(2S,4R)-4-hydroxy-2-{[(1S)-1-[4-(4-methyl-1,3-thiazol-5-yl)phenyl]ethyl]carbamoyl}pyrrolidin-1-yl]-3-methyl-1-oxobutan-2-yl]-1,2-oxazol-3-yl}methyl)-N-methylcarbamate] | 80 to 100 | < 600 |
| CCc1cccc2cc(O)cc(-c3ncc4c(N5CC6CCC(C5)N6)nc(OC[C@@]56CCCN5[C@H](COC(=O)N(C)Cc5cc([C@@H](C(=O)N7C[C@H](O)C[C@H]7C(=O)N[C@@H](C)c7ccc(-c8scnc8C)cc7)C(C)C)on5)CC6)nc4c3F)c12 [Compound 91, [(3S,7aS)-7a-{[(4-{3,8-diazabicyclo[3.2.1]octan-3-yl}-7-(8-ethyl-3-hydroxynaphthalen-1-yl)-8-fluoropyrido[4,3-d]pyrimidin-2-yl)oxy]methyl}-hexahydro-1H-pyrrolizin-3-yl]methyl N-({5-[(2S)-1-[(2S,4R)-4-hydroxy-2-{[(1S)-1-[4-(4-methyl-1,3-thiazol-5-yl)phenyl]ethyl]carbamoyl}pyrrolidin-1-yl]-3-methyl-1-oxobutan-2-yl]-1,2-oxazol-3-yl}methyl)-N-methylcarbamate] | 20 to 60 | 1000 to 3000 |
| CCc1cccc2cc(O)cc(-c3ncc4c(N5CC6CCC(C5)N6)nc(OC[C@]56CCCN5[C@@H](COC(=O)N(C)Cc5cc([C@H](C(=O)N7C[C@H](O)C[C@H]7C(=O)N[C@@H](C)c7ccc(-c8scnc8C)cc7)C(C)C)on5)CC6)nc4c3F)c12 [Compound 92, [(3R,7aR)-7a-{[(4-{3,8-diazabicyclo[3.2.1]octan-3-yl}-7-(8-ethyl-3-hydroxynaphthalen-1-yl)-8-fluoropyrido[4,3-d]pyrimidin-2-yl)oxy]methyl}-hexahydro-1H-pyrrolizin-3-yl]methyl N-({5-[(2R)-1-[(2S,4R)-4-hydroxy-2-{[(1S)-1-[4-(4-methyl-1,3-thiazol-5-yl)phenyl]ethyl]carbamoyl}pyrrolidin-1-yl]-3-methyl-1-oxobutan-2-yl]-1,2-oxazol-3-yl}methyl)-N-methylcarbamate] | 80 to 100 | < 600 |
| CCc1cccc2cc(O)cc(-c3ncc4c(N5CC6CCC(C5)N6)nc(OC[C@]56CCCN5[C@@H](COC(=O)N(C)Cc5cc([C@@H](C(=O)N7C[C@H](O)C[C@H]7C(=O)N[C@@H](C)c7ccc(-c8scnc8C)cc7)C(C)C)on5)CC6)nc4c3F)c12 [Compound 93, [(3R,7aR)-7a-{[(4-{3,8-diazabicyclo[3.2.1]octan-3-yl}-7-(8-ethyl-3-hydroxynaphthalen-1-yl)-8-fluoropyrido[4,3-d]pyrimidin-2-yl)oxy]methyl}-hexahydro-1H-pyrrolizin-3-yl]methyl N-({5-[(2S)-1-[(2S,4R)-4-hydroxy-2-{[(1S)-1-[4-(4-methyl-1,3-thiazol-5-yl)phenyl]ethyl]carbamoyl}pyrrolidin-1-yl]-3-methyl-1-oxobutan-2-yl]-1,2-oxazol-3-yl}methyl)-N-methylcarbamate] | 20 to 60 | 1000 to 3000 |
| CCc1cccc2cc(O)cc(-c3ncc4c(N5CC6CCC(C5)N6)nc(OC[C@@]56CCCN5[C@H](CN5CCN(c7cc([C@H](C(=O)N8C[C@H](O)C[C@H]8C(=O)N[C@@H](C)c8ccc(-c9scnc9C)cc8)C(C)C)on7)CC5)CC6)nc4c3F)c12 [Compound 94, (2S,4R)-1-[(2R)-2-[3-(4-{[(3S,7aS)-7a-{[(4-{3,8-diazabicyclo[3.2.1]octan-3-yl}-7-(8-ethyl-3-hydroxynaphthalen-1-yl)-8-fluoropyrido[4,3-d]pyrimidin-2-yl)oxy]methyl}-hexahydro-1H-pyrrolizin-3-yl]methyl}piperazin-1-yl)-1,2-oxazol-5-yl]-3-methylbutanoyl]-4-hydroxy-N-[(1S)-1-[4-(4-methyl-1,3-thiazol-5-yl)phenyl]ethyl]pyrrolidine-2-carboxamide] | 80 to 100 | < 600 |
| CCc1cccc2cc(O)cc(-c3ncc4c(N5CC6CCC(C5)N6)nc(OC[C@@]56CCCN5[C@H](CN5CCN(c7cc([C@@H](C(=O)N8C[C@H](O)C[C@H]8C(=O)N[C@@H](C)c8ccc(-c9scnc9C)cc8)C(C)C)on7)CC5)CC6)nc4c3F)c12 [Compound 95, (2S,4R)-1-[(2S)-2-[3-(4-{[(3S,7aS)-7a-{[(4-{3,8-diazabicyclo[3.2.1]octan-3-yl}-7-(8-ethyl-3-hydroxynaphthalen-1-yl)-8-fluoropyrido[4,3-d]pyrimidin-2-yl)oxy]methyl}-hexahydro-1H-pyrrolizin-3-yl]methyl}piperazin-1-yl)-1,2-oxazol-5-yl]-3-methylbutanoyl]-4-hydroxy-N-[(1S)-1-[4-(4-methyl-1,3-thiazol-5-yl)phenyl]ethyl]pyrrolidine-2-carboxamide] |  | > 3000 |
| CCc1cccc2cc(O)cc(-c3ncc4c(N5CC6CCC(C5)N6)nc(OC[C@@]56CCCN5[C@H](CN5CCC(COc7cc([C@H](C(=O)N8C[C@H](O)C[C@H]8C(=O)N[C@@H](C)c8ccc(-c9scnc9C)cc8)C(C)C)on7)CC5)CC6)nc4c3F)c12 [Compound 96, (2S,4R)-1-[(2R)-2-{3-[(1-{[(3S,7aS)-7a-{[(4-{3,8-diazabicyclo[3.2.1]octan-3-yl}-7-(8-ethyl-3-hydroxynaphthalen-1-yl)-8-fluoropyrido[4,3-d]pyrimidin-2-yl)oxy]methyl}-hexahydro-1H-pyrrolizin-3-yl]methyl}piperidin-4-yl)methoxy]-1,2-oxazol-5-yl}-3-methylbutanoyl]-4-hydroxy-N-[(1S)-1-[4-(4-methyl-1,3-thiazol-5-yl)phenyl]ethyl]pyrrolidine-2-carboxamide] | 80 to 100 | < 600 |
| CCc1cccc2cc(O)cc(-c3ncc4c(N5CC6CCC(C5)N6)nc(OC[C@@]56CCCN5[C@H](CN5CCC(COc7cc([C@@H](C(=O)N8C[C@H](O)C[C@H]8C(=O)N[C@@H](C)c8ccc(-c9scnc9C)cc8)C(C)C)on7)CC5)CC6)nc4c3F)c12 [Compound 97, (2S,4R)-1-[(2S)-2-{3-[(1-{[(3S,7aS)-7a-{[(4-{3,8-diazabicyclo[3.2.1]octan-3-yl}-7-(8-ethyl-3-hydroxynaphthalen-1-yl)-8-fluoropyrido[4,3-d]pyrimidin-2-yl)oxy]methyl}-hexahydro-1H-pyrrolizin-3-yl]methyl}piperidin-4-yl)methoxy]-1,2-oxazol-5-yl}-3-methylbutanoyl]-4-hydroxy-N-[(1S)-1-[4-(4-methyl-1,3-thiazol-5-yl)phenyl]ethyl]pyrrolidine-2-carboxamide] | 20 to 60 | 600 to 1000 |
| CCc1cccc2cc(O)cc(-c3ncc4c(N5CC6CCC(C5)N6)nc(OC[C@@]56CCCN5[C@H](COC(=O)NCc5cc([C@@H](C(=O)N7C[C@H](O)C[C@H]7C(=O)N[C@@H](C)c7ccc(-c8scnc8C)cc7)C(C)C)on5)CC6)nc4c3F)c12 [Compound 100, [(3S,7aS)-7a-{[(4-{3,8-diazabicyclo[3.2.1]octan-3-yl}-7-(8-ethyl-3-hydroxynaphthalen-1-yl)-8-fluoropyrido[4,3-d]pyrimidin-2-yl)oxy]methyl}-hexahydro-1H-pyrrolizin-3-yl]methyl N-({5-[(2S)-1-[(2S,4R)-4-hydroxy-2-{[(1S)-1-[4-(4-methyl-1,3-thiazol-5-yl)phenyl]ethyl]carbamoyl}pyrrolidin-1-yl]-3-methyl-1-oxobutan-2-yl]-1,2-oxazol-3-yl}methyl) carbamate] | 20 to 60 | 1000 to 3000 |
| CCc1cccc2cc(O)cc(-c3ncc4c(N5CC6CCC(C5)N6)nc(O[C@H](C)CN5CCC(COc6cc([C@H](C(=O)N7C[C@H](O)C[C@H]7C(=O)N[C@@H](C)c7ccc(-c8scnc8C)cc7)C(C)C)on6)CC5)nc4c3F)c12 [Compound 101, (2S,4R)-1-[(2R)-2-[3-({1-[(2R)-2-[(4-{3,8-diazabicyclo[3.2.1]octan-3-yl}-7-(8-ethyl-3-hydroxynaphthalen-1-yl)-8-fluoropyrido[4,3-d]pyrimidin-2-yl)oxy]propyl]piperidin-4-yl}methoxy)-1,2-oxazol-5-yl]-3-methylbutanoyl]-4-hydroxy-N-[(1S)-1-[4-(4-methyl-1,3-thiazol-5-yl)phenyl]ethyl]pyrrolidine-2-carboxamide] | 60 to 80 | < 600 |
| CCc1cccc2cc(O)cc(-c3ncc4c(N5CC6CCC(C5)N6)nc(OC[C@]56CCCN5[C@@H](COC(=O)NCc5cc([C@H](C(=O)N7C[C@H](O)C[C@H]7C(=O)N[C@@H](C)c7ccc(-c8scnc8C)cc7)C(C)C)on5)CC6)nc4c3F)c12 [Compound 102, [(3R,7aR)-7a-{[(4-{3,8-diazabicyclo[3.2.1]octan-3-yl}-7-(8-ethyl-3-hydroxynaphthalen-1-yl)-8-fluoropyrido[4,3-d]pyrimidin-2-yl)oxy]methyl}-hexahydro-1H-pyrrolizin-3-yl]methyl N-({5-[(2R)-1-[(2S,4R)-4-hydroxy-2-{[(1S)-1-[4-(4-methyl-1,3-thiazol-5-yl)phenyl]ethyl]carbamoyl}pyrrolidin-1-yl]-3-methyl-1-oxobutan-2-yl]-1,2-oxazol-3-yl}methyl) carbamate] | 80 to 100 | < 600 |

Reference: US20250206732A1, “COMPOUNDS AND METHODS FOR THE TARGETED DEGRADATION OF KRAS” (Arvinas Operations, Inc., priority 2022, published 2025)
